# Patent US10253002B2, “Compounds and methods of treating infections” (Neoculi Pty Ltd., priority 2013, dated 2019)
# Columns and labels:
# [1] = test system: protein synthesis in S. aureus ATCC 29213; test: Macromolecular synthesis assay: protein synthesis ([3H] leucine); format: cell-based, Staphylococcus aureus; details: at the MIC
# Protocol: Cells were grown at 35° C. overnight on Trypticase Soy agar. A colony from the plate was used to inoculate 10 ml of Mueller Hinton broth II (MHBII), and the culture was grown to early exponential growth phase (OD600==0.2 to 0.3) while incubating in a shaker at 35° C. and 200 rpm.
# When cells reached early exponential phase, 100 μL of culture was added to triplicate wells containing various concentrations of test compound or control antibiotics (5 μL) at 20× the final concentration in 100% DMSO. A 5% DMSO treated culture served as the “no drug” control for all experiments. Cells were added in MHBII at 105% to account for the volume of drug added to each reaction or in M9 minimal medium for protein synthesis reactions. Following 15 min incubation at room temperature, either [^3H] thymidine (DNA synthesis), [^3H] uridine (RNA synthesis) or [^3H] leucine (protein synthesis) was added at 0.5-1.0 μCi per reaction, depending on the experiment. Reactions were allowed to proceed at room temperature for 15-30 min and then stopped by adding 12 μL of cold 5% trichloroacetic acid (TCA) or 5% TCA/2% casamino acids (protein synthesis only). […] After washing three times with 5 ml of cold 5% TCA, the filters were rinsed two times with 5 mL 100% ethanol, allowed to dry, and then counted using a Beckman LS3801 liquid scintillation counter.
# [2] = test system: Staphylococcus aureus; test: Mouse skin wound infection model, topical treatment; format: in vivo, mice; details: 14 treatments
# Text: Preliminary studies prior to the conduct of the current study established a new method of skin infection arising from a detailed study of the models mentioned above. Briefly, study mice are anaesthetised, a patch of dorsal skin is clipped to reveal the skin and a circular area of skin is removed with a hand held punch, leaving a wound on the dorsum with a central cavity. The wound is infected with a known number of the challenge organism. Approximately four to six hours after infection, the wound is either treated topically with a vehicle formulation or an active formulation. The infected skin wound is retreated every 12 hours for a total of 14 treatments. Mice are humanely euthanased, the area of the original infected wound is dissected and removed and its bacterial content quantified by standard microbiologic tests. In this way, the change in bacterial concentration due to treatment with the active formulation can be readily determined by examining the reduction in bacterial burden compared with the vehicle control. Fresh cultures of bacteria (Staphylococcus aureus) were grown on Sheep Blood Agar at 37° C. for 16-18 hours. A few typical colonies were selected and suspended in 10 ml of Tryptic Soy Broth and incubated overnight in a shaking incubator (240 rpm) at 37° C. The overnight suspension was vortexed and diluted (1:100) in fresh Tryptic soy broth (100 μl [0.1 ml] in 9.9 ml broth). The fresh suspension was incubated for 3 hours in a shaking incubator (as above) in order to obtain mid-logarithmic phase bacteria. Bacteria were pelleted through centrifugation at 7,500 rpm for 10 mins. Broth supernatant was removed and bacteria suspended in 10 ml Phosphate Buffered Saline (PBS). These steps were repeated a further two times. The density of the suspension was checked by measuring absorbance at 600 nm, using a spectrophotometer with saline as a blank, to confirm the target density at a reading of approximately 0.100, consistent with a bacterial density of 2.5×10^7 CFU/ml. The suspension was placed into a rack placed into a lockable transport box with an ice brick to maintain refrigeration during transport, followed by storage in cool room upon arrival at the mouse skin infection laboratory. Final suspension was mixed thoroughly before inoculating the skin wounds created in mice. […] Eyes of each anaesthetised mouse were covered with veterinary eye lubricant in order to prevent corneal dehydration. Each mouse removed from induction chamber and placed onto surgical area, in front of individual aesthetic nose cone. While under anaesthesia each mouse was monitored for assessment of depth of anaesthesia (response to pain, blink reflex, skeletal muscle tone) and respiratory and cardiac function. Back skin hair was shaved from surgical area with mechanical clippers. […] Once the iodine solution was dry, a subcutaneous injection of the nonsteroidal anti-inflammatory agent meloxicam was administered. Dorsal skin was pinched gently to allow creation of a circular full-thickness wound using ear punch/biopsy punch. […] Once the bacterial suspension was dry, mice were placed into individual recovery boxes labelled with the mouse number. The time of inoculation was recorded. Initial body weights of each mouse were recorded on the appropriate score sheet. Mice recovered to full consciousness within 5 minutes. Recovered mice were returned to individual housing and monitored hourly for post-surgical or anaesthetic complications. […] Each ointment container was weighted prior to administration and the weight recorded. Each mouse was carefully restrained. […] The weight of the ointment container post-administration was recorded. […] At the end of the 7 day skin wound assessment period, all test mice were euthanased prior to wound collection for post mortem examination. The skin wound was dissected from the dorsum of each mouse. The sample was placed in a sample tube and weighed before 1 ml PBS and sterile tissue homogenisation beads were added. […]
# [3] = test system: ATP release from S. aureus ATCC 29213; test: ATP release assay (CellTiter-Glo); format: cell-based, Staphylococcus aureus; details: at the MIC ([…] μg/ml); 30 min exposure
# Protocol: The CellTiter-Glo Luminescent Cell Viability Assay (Promega) was utilized to measure the leakage of ATP from bacteria. […] The negative control received 2% DMSO, which represented the final DMSO concentration in each assay. After a 30 min exposure to drug, cells were sedimented by centrifugation and the supernatant was analyzed for the presence of ATP. Results were expressed as ATP concentration released to the medium (μM).
smiles,measurement,setting,value
"N=C(N/N=C/c1ccc(Cl)cc1)N/N=C/c1ccc(Cl)cc1 [NCL812, 1,3-bis[(E)-(4-chlorophenyl)methyleneamino]guanidine]",inhibition of protein synthesis,[1],up to 97%
same,"mean colony count per g of tissue, log10","[2]; mice, Formulation B 20 mg/g topically every 12 hours, vehicle 6.77",5.15 log10
same,mean colony count per g of tissue,"[2]; mice, Formulation B 20 mg/g topically every 12 hours, vehicle 5,888,436","141,254"
same,% reduction (of colony forming units per gram of tissue versus vehicle),"[2]; mouse skin wound infected with Staphylococcus aureus, topical ointment (Formulation B, 20 mg/g) every 12 hours, end of 7 day period, relative to vehicle group",97.6%
same,Log10 (CFU/g): colony forming units per gram of tissue,"[2]; mouse skin wound infected with Staphylococcus aureus, topical ointment (Formulation B, 20 mg/g) every 12 hours, wound tissue at end of 7 day period, group mean",5.15 Log10 (CFU/g)
same,maximal ATP release,[3],0.33 µM
